Patent publication US5942502A, “Method of treating diseases resulting from calcium metabolism disorders” (priority 1998, dated 1999)
Entries after “also recorded” stand apart in the source; their conditions may differ. Where two headings read alike, the source gives them in different places.

Legend:
[1] = cited from earlier work
[2] = in vivo; cited from earlier work
Ovariectomized rats = experiment: Ovariectomized rat model: serum Ca and P, femur dry weight, ash weight and breaking load; format: in vivo, Female Fisher rats; settings: for Serum Pi / Breaking load (femur) / Serum Ca / Ash weight (femur) / Dry weight (femur): three times a week for 23 weeks, Mean ± SD; for Serum Pi: OVX 2.6 ± 0.4; for Breaking load (femur): OVX 9.0 ± 0.9; for Serum Ca: OVX 9.7 ± 0.2; for Ash weight (femur): OVX 285 ± 19; for Dry weight (femur): OVX 431 ± 26
Excerpt: Female Fisher rats, 9-10 months old, were ovariectomized and were fed a vitamin D-deficient diet containing 0.45% calcium and 0.3% phosphorus. The rats were given 15IU of vitamin D3 orally once a week throughout this experiment. Four weeks after the surgery, the rats were orally adminstered three times a week for 23 weeks with ST-630 (30, 100 or 300 pmole/kg) or 1α-hydroxyvitamin D3 (100 or 300 pmole/kg).

[3] = Acute toxicity (LD50), single dose; format: in vivo, rat; settings: rat, in vivo; single (acute) dose, male rats, at 14 days
Excerpt: LD50 data represent the dose administered resulting in the death of 50% of the test group.

female beagle dogs = experiment: Chronic dosing toxicity, three months oral; format: in vivo, dog (beagle); settings: 0.3 mg/kg orally each day for three months
Method: With respect to chronic dosing, a group of six female beagle dogs were given 0.3 mg/kg of either ST-630 or 1α-hydroxyvitamin D3 orally each day for three months.

[4] = cited from earlier work; remark: listed apart in the source
[5] = compared with 1,25-(OH)2 D3; cited from earlier work
[6] = test system: postmenopausal osteoporosis; settings: average dose 0.8 μg per day, cited from earlier work
[7] = test system: postmenopausal osteoporosis; settings: cited from earlier work
[8] = especially with conventional calcium supplement treatment
[9] = dose response over the doses tested

Question: With C=C1/C(=C\C=C2/CCC[C@]3(C)[C@@H]([C@H](C)CCC(O)C(C)(C)O)CC[C@@H]23)C[C@@H](O)CC1O (stereo partly drawn) [1,24,25-trihydroxyvitamin D3] as the molecule, how does the hypercalcemia ([1]; in vivo) read?
Answer: Its hypercalcemia is “causing hypercalcemia”.

Question: What does the source list for C=C1/C(=C\C=C2/CCC[C@]3(C)[C@@H]([C@H](C)/C=C/[C@@H](C)C(C)(C)O)CC[C@@H]23)C[C@@H](O)C[C@@H]1O [1α,25-dihydroxy-24-epi-vitamin D2]?
Answer: intestinal calcium transport [2]: increasing intestinal calcium transport; mineralization of new bone [2]: stimulating the mineralization of new bone; mobilizing calcium from bone [2]: minimal effectiveness

Question: Which hypercalcemia [1, 8] does the source give for C=C1/C(=C\C=C2/CCC[C@]3(C)[C@@H]([C@H](C)/C=C/[C@H](C)C(C)(C)O)CC[C@@H]23)C[C@@H](O)C[C@@H]1O [1α,25-dihydroxyvitamin D2] here?
Answer: The hypercalcemia was “causing hypercalcemia”.

Question: With C=C1/C(=C\C=C2/CCC[C@]3(C)[C@@H]([C@H](C)/C=C/[C@H](C)C(C)C)CC[C@@H]23)C[C@@H](O)C[C@@H]1O [1α-hydroxyvitamin D2] as the molecule, how does the hypercalcemia [1, 8] read?
Answer: Its hypercalcemia is “causing hypercalcemia”.

Question: Which “Serum Pi” value (Ovariectomized rats; 100 pmole/kg p.o.) does the source give for C=C1/C(=C\C=C2/CCC[C@]3(C)[C@@H]([C@H](C)CCCC(C)C)CC[C@@H]23)C[C@@H](O)C[C@@H]1O [1α-hydroxyvitamin D3, reference compound] here?
Answer: The value was 3.8 ± 0.3 mg/100 ml.

Question: And the “Breaking load (femur)” value (Ovariectomized rats; 100 pmole/kg p.o.)?
Answer: Its value is 9.3 ± 0.6 kg.

Question: What about the “Serum Ca” value (Ovariectomized rats; 100 pmole/kg p.o.) of the same molecule?
Answer: Its value is 9.9 ± 0.2 mg/100 ml.

Question: And the “Ash weight (femur)” value (Ovariectomized rats; 100 pmole/kg p.o.)?
Answer: Its value is 303 ± 29 mg.

Question: And the “Dry weight (femur)” value (Ovariectomized rats; 100 pmole/kg p.o.)?
Answer: The value was 454 ± 42 mg.

Question: What about the “Serum Pi” value (Ovariectomized rats; 300 pmole/kg p.o.) of the same molecule?
Answer: The value was 4.3 ± 0.4 mg/100 ml.

Question: What about the “Breaking load (femur)” value (Ovariectomized rats; 300 pmole/kg p.o.) of the same molecule?
Answer: Its value is 9.5 ± 1.1 kg.

Question: What about the “Serum Ca” value (Ovariectomized rats; 300 pmole/kg p.o.) of the same molecule?
Answer: The value was 10.3 ± 0.3 mg/100 ml.

Question: And the “Ash weight (femur)” value (Ovariectomized rats; 300 pmole/kg p.o.)?
Answer: The value was 308 ± 33 mg.

Question: And the “Dry weight (femur)” value (Ovariectomized rats; 300 pmole/kg p.o.)?
Answer: Its value is 461 ± 47 mg.

Question: What about the serum calcium level (Ovariectomized rats; [9]) of the same molecule?
Answer: Its serum calcium level is “increased dose-dependently”.

Question: What about the serum phosphorus level (Ovariectomized rats; [9]) of the same molecule?
Answer: Its serum phosphorus level is “increased dose-dependently”.

Question: What about the LD50 at 336 h [3] of the same molecule?
Answer: Its LD50 at 336 h is 0.2 mg/kg.

Question: What about the deaths (female beagle dogs) of the same molecule?
Answer: The deaths was “two of six dogs”.

Question: What about the “safe dose used for human administration” value ([4]; humans) of the same molecule?
Answer: Its value is 1 µg/day.

Question: Which “activity relative to 1,25-(OH)2 D3” value [5] does the source give for C=C1/C(=C\C=C2/CCC[C@]3(C)[C@@H]([C@H](C)CCC(F)(F)C(C)(C)O)CC[C@@H]23)C[C@@H](O)C[C@@H]1O [24,24-difluoro-1,25-(OH)2 D3] here?
Answer: The value was “at least as great if not greater activity”.

Question: With C=C1/C(=C\C=C2/CCC[C@]3(C)[C@@H]([C@H](C)CCCC(C)(C)O)CC[C@@H]23)C[C@@H](O)C[C@@H]1O [calcitriol, 1α,25-dihydroxyvitamin D3] as the molecule, how does the Hypercalciuria incidence [6] read?
Answer: The Hypercalciuria incidence was “all subjects”.

Question: What about the bone formation [6] of the same molecule?
Answer: The bone formation was “no effect on bone formation”.

Question: What about the bone resorption [6] of the same molecule?
Answer: The bone resorption was “reducing bone resorption”.

Question: And the calcium absorption [6]?
Answer: Its calcium absorption is “increasing calcium absorption”.

Question: And the hypercalcemia incidence [6]?
Answer: The hypercalcemia incidence was 11 of 12 subjects.

Question: What about the bone loss ([6]; women with postmenopausal osteoporosis) of the same molecule?
Answer: Its bone loss is “reduced bone loss”.

Question: What about the hypercalcemia ([7]; 0.5 μg per day (0.25 μg orally twice a day), average dietary calcium intake 800 mg) of the same molecule?
Answer: The hypercalcemia was “not accompanied by hypercalcemia of any severity; also recorded: limited potential to induce hypercalcemia”.

Question: And the “rate of new vertebral fractures” value ([7]; 0.5 μg per day for three years, versus supplemental calcium 1 gram daily)?
Answer: Its value is “significant reduction”.

Question: And the hypercalcemia [1, 8]?
Answer: Its hypercalcemia is “causing hypercalcemia”.

Question: What about the “dosage "window" or tolerance between effectiveness and toxicity” value ([4]; in view of Oloia et al and Tilyard et al) of the same molecule?
Answer: Its value is “relatively small”.

Question: With C=C1CC[C@H](O)C/C1=C/C=C1\CCC[C@]2(C)[C@@H]([C@H](C)CCCC(C)(C)O)CC[C@@H]12 [hydrate of 25-hydroxyvitamin D3, 25-hydroxyvitamin D3] as the molecule, how does the hypercalcemia [1, 8] read?
Answer: Its hypercalcemia is “danger of hypercalcemia”.
